What was measured:
[1] = tested on: human breast and ovarian cancer cell lines; test: Boyden chamber chemotaxis; type: cell-based; settings: responsive cell lines; read-out: IC50 for the inhibition of chemotaxis
From the text: A6 had no effect on the migration of CD44-negative A2780 cells. A6 was also shown to interfere with the binding of only one (DF1485) of the four anti-CD44 antibodies tested.

[2] = tested on: CD44-positive SKOV3 cells; test: Boyden chamber migration; type: cell-based, human; settings: compared to untreated control
[3] = tested on: CD44-negative A2780 cells; test: Boyden chamber migration; type: cell-based, human
[4] = tested on: FAK phosphorylation in CD44-positive SKOV3 cells; test: FAK phosphorylation signaling study; type: cell-based, human
Procedure: Human ovarian SKOV3 cells were bound and cross-linked to A6. […] To determine if this binding influenced CD44-mediated activity, and to determine if a functional relationship existed between A6 and CD44, intracellular signaling studies were conducted.

[5] = tested on: MDA-MB-231 human mammary carcinoma xenografts; test: Mammary carcinoma xenograft model; set-up: species or system BALB/c (nu/nu) mice; settings: mouse, in vivo
Procedure: Mammary: The effects of A6 in mammary tumor and metastasis models were investigated. […] The effect of A6 in Fisher rats inoculated with Mat B-111 syngeneic mammary carcinoma cells was evaluated.

U87MG human glioma cells = test: Subcutaneous glioma xenograft; type: in vivo, BALB/c (nu/nu) mice
Procedure: Glioblastoma: In animal models of glioblastoma, U87MG human glioma cells were implanted subcutaneously or intracranially in BALB/c (nu/nu) mice and the animals were divided into different treatment groups. […] In this study the effects of cisplatin were also examined.

[6] = tested on: ZAP-70pos B-cell lymphocytes isolated from individual patients; test: CLL xenograft model; type: in vivo, immune-deficient mice; settings: vs vehicle control
[7] = tested on: persistent or recurrent epithelial ovarian, fallopian tube, or primary peritoneal carcinoma; test: Phase 2 trial, persistent or recurrent ovarian cancer
Procedure: Persistent or Recurrent Ovarian Cancer: A Phase 2 trial was conducted in patients with persistent or recurrent epithelial ovarian, fallopian tube, or primary peritoneal carcinoma to evaluate A6 in a patient population with a disease burden greater than that presented in the previously described MOR trial. Patients had received one prior platinum-based chemotherapeutic regimen and were allowed to have received one additional cytotoxic regimen for the management of recurrent or persistent disease. Patients received a 150 mg twice daily subcutaneous dose of A6 and continued on treatment until disease progression or unacceptable toxicity. Response criteria were as defined by RECIST. Primary measures of clinical efficacy were objective tumor response and PFS at 6 months compared to a historical Gynecologic Oncology Group (GOG) dataset based on a similar population of patients.

[8] = tested on: choroidal neovascularization; test: Laser-induced choroidal neovascularization (CNV); type: in vivo, rat; settings: subcutaneous injections; compared to non-treated controls
[9] = tested on: choroidal neovascularization; test: Laser-induced choroidal neovascularization (CNV); type: in vivo, primate; settings: intravitreal administration; relative to control
retina of diabetic rats = test: Streptozotocin diabetic retinopathy model; set-up: species or system Brown Norway rats; settings: rat, in vivo
[10] = tested on: retinal microvascular endothelial cell invasion; test: HGF-induced retinal endothelial cell invasion; type: cell-based
From the text: The effect of A6 on HGF and its receptor, c-Met, in retinal angiogenesis has been examined.

2008/C13*5.25 cells = test: CCK-8 cytotoxicity, A6 plus DDP; type: cell-based, human; settings: A6 1, 10 or 100 μM 1 h, then 1 h A6 plus DDP; 10% FBS
Procedure: Conditions: Drugs: DDP (3.33 mM stock) and A6 (109.8 mM stock); Drug exposure time: 1 hour ; Cell line: 2008 and its DDP-resistant subline 2008/C31*5.25; Media: RPMI 1640 plus 10% FBS containing 1 mM penicillin/streptomycin; Cytotoxicity Assays: CCK-8 (Cell Counting Kit 8—Dojindo Molecular Technologies).
Tissue culture plates containing 96-well plates were seeded with 3000 cells in 100 μl of media per well. The wells on rows A-D were seeded with 2008 cells, while the wells on rows E-H were seeded with 2008/C13*5.25 cells. The cells were allowed to attach overnight in a 37° C. in 5% CO2 incubator. Approximately 24 h later medium was removed by aspiration and the cells were exposed to 0, 1, 10 or 100 μM A6 peptide in 100 μl. After 1 h, increasing concentrations of DDP were added to triplicate wells in 100 μl medium. Following a 1 h exposure to the combination of A6 and DDP, the drugs were removed by aspiration. The cells were then allowed to grow for 96 h following which the plates were assayed for relative cell growth with the CCK-8 assay.
CCK-8 assay. Five μl of CCK-8 stain was added to each well and the plate was incubated at 37° C. incubator for 4 h. The plate was read with a microplate reader at a wavelength of 450 nm.
(§1) The assay was performed using triplicate wells for each DDP concentration. […]

IGROV-1 cells = test: CCK-8 cytotoxicity, A6 plus DDP; type: cell-based, human; settings: A6 1, 10 or 100 μM 1 h, then 1 h A6 plus DDP
Procedure: Drugs: DDP (3.33 mM stock) and A6 (109.8 mM stock); Drug exposure time: 1 hour; Cell line: IGROV-1 and its DDP-resistant subline IGROV-1/CP; Media: RPMI 1640 plus 10% FBS containing 1 mM penicillin/streptomycin; Cytotoxicity Assays: CCK-8 (Cell Counting Kit 8—Dojindo Molecular Technologies).
Tissue culture plates containing 96-well plates were seeded with 4000 cells in 100 μl of media per well. The wells on rows A-D were seeded with IGROV-1 cells, while the wells on rows E-H were seeded with IGROV-1/CP cells. The cells were allowed to attach overnight in a 37° C. in 5% CO2 incubator. Approximately 24 h later medium was removed by aspiration and the cells were exposed to 0, 1, 10 or 100 μM A6 peptide in 100 μl. After 1 h, increasing concentrations of DDP were added to triplicate wells in 100 pa medium. Following a 1 h exposure to the combination of A6 and DDP, the drugs were removed by aspiration. The cells were then allowed to grow for 96 h following which the plates were assayed for relative cell growth with the CCK-8 assay.
CCK-8 assay. Five pi of CCK-8 stain was added to each well and the plate was incubated at 37° C. incubator for 4 h. The plate was read with a microplate reader at a wavelength of 450 nm.
as §1

IGROV-1/CP cells = test: CCK-8 cytotoxicity, A6 plus DDP; type: cell-based, human; settings: A6 1, 10 or 100 μM 1 h, then 1 h A6 plus DDP
Procedure: Study Conditions. Drugs: […] Drug exposure time: 1 hour; Cell line: IGROV-1 and its DDP-resistant subline IGROV-1/CP; Media: RPMI 1640 plus 10% FBS containing 1 mM penicillin/streptomycin; Cytotoxicity Assays: CCK-8 (Cell Counting Kit 8—Dojindo Molecular Technologies). Tissue culture plates containing 96-well plates were seeded with 4000 cells in 100 μl of media per well. The wells on rows A-D were seeded with IGROV-1 cells, while the wells on rows E-H were seeded with IGROV-1/CP cells. […] After 1 h, increasing concentrations of DDP were added to triplicate wells in […] medium. […] The cells were then allowed to grow for 96 h following which the plates were assayed for relative cell growth with the CCK-8 assay. CCK-8 assay. […] of CCK-8 stain was added to each well and the plate was incubated at 37° C. incubator for 4 h. The plate was read with a microplate reader at a wavelength of 450 nm. (See FIGS. 7A-7D and FIG. 8). The assay was performed using triplicate wells for each DDP concentration. The data in the tables below is the optical density in the well which is a function of the number of live cells remaining at the end of the 96 h growth period.

[11] = tested on: HEY (DDP sensitive) cells; test: CCK-8 cytotoxicity of DDP/PTX with or without A6; type: cell-based; settings: 100 μM A6; 72 hours; 10% FBS
Procedure: Effect of A6 plus Cisplatin (DDP) or Paclitaxel (PTX) in HEY (DDP sensitive) and HEY/C2 (DDP resistant) cells was tested. The cells were plated in 96-well plates as described and incubated overnight. The cells were treating with various doses of DDP/PTX in the absence or presence of 100 μM A6 in culture medium containing 10% FBS and incubated for 72 hours. The CCK-8 assay described herein was performed to access cytotoxicity of DDP/PTX.

[12] = tested on: HEY/C2 (DDP resistant) cells; test: CCK-8 cytotoxicity of DDP/PTX with or without A6; type: cell-based; settings: 100 μM A6; 72 hours; 10% FBS
Procedure: The cells were plated in 96-well plates as described and incubated overnight. […] The CCK-8 assay described herein was performed to access cytotoxicity of DDP/PTX.

breast cancer = test: Compassionate use, breast cancer patient; type: in vivo, human; settings: A6 150 mg/day for 9 years, after Taxol 268 mg daily for 2 weeks
Procedure: A6 was administered in combination with paclitaxel as a compassionate use.

[13] = 150 mg twice daily subcutaneous

Ac-KPSSPPEE-NH2 [A6, Ac-KPSSPPEE-NH2]
IC50 [1]: 10 to 100 nM | inhibition of migration [2]: > 85% | effect on migration [3]: no effect | FAK phosphorylation [4]: modulate FAK phosphorylation | metastasis [5]: An inhibition of metastasis was noted | time to progression following discontinuation of treatment (U87MG human glioma cells): prolonged the time to progression | reduction in CLL burden [6]: up to 90% | evaluable patients achieving stable disease [7, 13]: 36% | patients progression free for at least 6 months [7, 13]: 6.5% | objective tumor response ([7]; 150 mg twice daily subcutaneous, 31 eligible patients): no responses were observed | tolerability ([7]; in vivo): well tolerated | reduction in CNV [8]: 70% | reduction in CNV [9]: 71% | increase in microvascular permeability in the retina (retina of diabetic rats): inhibits the increase | loss of vascular endothelial (VE)-cadherin (retina of diabetic rats): prevents the loss | HGF-induced retinal endothelial cell invasion [10]: reduced to control levels | modulation of sensitivity to DDP (2008/C13*5.25 cells): failed to modulate the sensitivity | modulation of sensitivity to DDP (IGROV-1 cells): failed to modulate the sensitivity | modulation of sensitivity to DDP (IGROV-1/CP cells): failed to modulate the sensitivity | sensitivity of cells to cisplatin [11]: did not affect sensitivity | sensitivity of cells to paclitaxel [11]: did not affect sensitivity | sensitivity of cells to cisplatin [12]: did not affect sensitivity | sensitivity of cells to paclitaxel [12]: did not affect sensitivity | clinical outcome (breast cancer): complete remission | adverse events (human, in vivo): no systemic drug-related adverse events | cumulative increase in concentration over time (human, in vivo): no cumulative increase in concentration over time was detected | anti-A6 antibody production (subcutaneous twice daily for 6 days, day 14): no anti-A6 antibody production was detected

Reference: patent US20190381127A1, “COMBINATION THERAPY WITH A6, CHEMOTHERAPEUTIC AGENTS, RADIATION THERAPY, OR A COMBINATION THEREOF FOR THE TREATMENT OF CANCER” (Splash Pharmaceuticals, Inc., priority 2016, published 2019)
